Reference: US5286864A, “Quinuclidines, their use as medicaments and processes for their preparation” (Boehringer Ingelheim KG, priority 1988, dated 1994)

Key:
[1] = tested on: conscious rabbit; experiment: EEG (electroencephalogram) of the conscious rabbit; type: in vivo; settings: 3 mg/kg i.v.
[2] = biological target: muscarine receptors; experiment: Receptor bonding studies (radioligand L(+)cis-[2-methyl-^3 H]-N,N,N-trimethyl-1,3-dioxolane-4-methanammonium iodide); type: binding; settings: cerebral cortex (rat); radioligand L(+)cis-[2-methyl-^3 H]-N,N,N-trimethyl-1,3-dioxolane-4-methanammonium iodide NET-647
Experimental: The compounds of the general formula I have useful pharmacological properties.
The receptor bonding studies were performed in accordance with the following literature reference [A. Closse, H. bittiger, D. Langenegger and A. Wahner; Naunyn-Schmiedeberg's Arch. Pharmacol. 335,372-377 (1987)].
Receptor bonding studies
L(+)cis-[2-methyl-^3 H]-N,N,N-trimethyl-1,3-
dioxolane-4-methanammonium iodide NET-647,
NEN (New England Nuclear DU PONT).
Organ: Cerebral cortex (rat)

SMILES: C#CCOC1CN2CCC1CC2 (stereo not drawn) [Example 1, 3-(2-Propynyloxy)-1-azabicyclo[2,2,2]octane]
- arousal reaction in the EEG [1]: exhibits an arousal reaction typical of cholinomimetics
- Ki [2]: 159 nM

SMILES: CCCOC1CN2CCC1CC2 (stereo not drawn) [nC3 H7]
- Ki [2]: 220 nM
